Measured values: patent US11155580B2, “Modified proteins and methods of use thereof” (YALE UNIVERSITY, priority 2013, dated 2021)

Experiments:
[1] = Trafficking of a biologically active peptide (NBD) into the cytosol; type: cell-based; conditions: 500 nM NBD fusions
Method: Cells were incubated in the presence of either 500 nM ZF 5.3-NBD or Antp-NBD or Arg8-NBD (FIG. 20). After incubation, internal peptide concentration was measured.

[2] = system: HeLa cervical cancer cells; test: Internal peptide concentration after co-administration with ZF 5.3; type: cell-based
Method: HeLa cervical cancer cells were incubated in the presence of either 500 nM ZF 4.3-Rhodamine or 500 nM ZF 4.3-Rhodamine with 1 μM ZF 5.3 for 30 minutes. After incubation, external peptide was removed and internal peptide concentration was measured using a microscope with advanced correlation and detection hardware. In the absence of ZF 5.3, only a small amount of ZF 4.3 enters the cell interior, corresponding to ˜8% of the ZF 4.3 concentration added (FIG. 19). In the presence of ZF 5.3, the amount of ZF 4.3 that enters the cell interior quadrupled, raising to ˜35% of the concentration added (FIG. 19).

Row | Sequence | trafficking a biologically active peptide into the cytosol [1] | intracellular concentration on co-incubation with ZF 5.3 [2]
1 | WYSCNVCGKAFVLSRHLNRHLRVHRRAT [ZF5.3] | superior to both Antp and Arg8 | –
2 | RRRRRRRR [Arg8] | – | did not significantly increase
